Mortality and pest or weed control data for three compounds are collected here from patent publication US20220274947A1, “NOVEL HETEROARYL-TRIAZOLE COMPOUNDS AS PESTICIDES” (Bayer Aktiengesellschaft, priority 2019, published 2022).

Holding throughout (type): in vivo
Test [1] deals with Culex quinquefasciatus strain P00. Put plainly: Culex quinquefasciatus test (CULXFA surface treatment & contact assay). Particulars: exposure 30 minutes, 24 hours after contact, read-out: efficacy (mortality); for mortality at 20 mg/m2: surface concentration 20 mg/m^2, glazed tile. The method in brief: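 Test compound in acetone (2 mg/ml) with 2000 ppm RME pipetted onto glazed tile; after acetone evaporation, adult strain P00 mosquitoes exposed to dried surface for 30 min. Mortality (%) scored 24 h after contact; 100% = all dead, 0% = none dead.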

For test [2], the system named is Rhipicephalus microplus. Put plainly: Rhipicephalus (Boophilus) microplus in-vitro contact test, larval cattle tick, strain Parkhurst (BOOPMI Cont). Particulars: application rate 5 μg/cm^2 (=500 g/ha), tick larvae, after 48 hours, read-out: activity (efficacy: 100% means all larvae are dead or moribund). The method in brief: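 Acetone solutions dried onto glass tube walls (900 ppm giving 5 μg/cm^2); 20-50 pyrethroid-resistant Parkhurst larvae added per tube and held 48 h at 27° C., 85% relative humidity. Efficacy scored by negative geotaxis as % dead or moribund larvae.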

In test [3] the test system is Ctenocephalides felis. The test can be described thus: Ctenocephalides felis in-vitro contact test, adult cat flea (CTECFE Cont). Particulars: application rate 5 μg/cm^2 (=500 g/ha), adult cat fleas, after 48 hours, read-out: activity (efficacy: 100% means all fleas are dead or moribund). The method in brief: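 Acetone solutions coated on glass tube inner walls (900 ppm giving 5 μg/cm^2), then 5-10 adult fleas added and held 48 h at room temperature. Fleas unable to escape a 45-50° C. heating plate within 5 min scored dead or moribund; efficacy = % dead/moribund.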

Test [4] deals with Nezara viridula. Put plainly: Nezara viridula spray test. The settings on record: in Hordeum vulgare, 96 h, barley plants, larvae, after 4 days; for mortality at 100 g/ha: application rate 100 g/ha; for mortality at 500 g/ha: application rate 500 g/ha. The method in brief:
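Barley plants infested with N. viridula larvae were sprayed with compound in acetone/DMF diluted with water containing 1000 ppm alkylarylpolyglycol ether emulsifier. Mortality (%) was scored after 4 days; 100% means all bugs killed, 0% none.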

For test [5], the system named is Spodoptera frugiperda. Put plainly: Spodoptera frugiperda spray test. The settings on record: in Zea mays, 168 h, read-out: activity (mortality). The procedure, abridged:
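Maize leaf sections were sprayed with compound formulated in acetone/DMF and diluted in water containing 1000 ppm emulsifier. Dried leaves were infested with fall armyworm larvae, and percent mortality was scored after 7 days.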

Test [6] concerns Rhipicephalus microplus. The test can be described thus: Rhipicephalus (Boophilus) microplus injection test (BOOPMI Inj). Particulars: 168 h, injection into adult engorged female ticks, egg deposition after 7 days, read-out: activity (efficacy: 100% means all eggs are infertile); for pest or weed control at 0.004 mg: application rate 4 μg/tick; for pest or weed control at 0.02 mg: application rate 20 μg/tick. The method in brief: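 Five engorged adult female R. microplus ticks injected into the abdomen with 1 μL of compound diluted in DMSO, then kept in a climate chamber. Fertile egg deposition checked after 7 days; eggs without visible fertility held until hatching at about 42 days. Efficacy: 100% = all eggs infertile, 0% = all fertile.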

Test [7] deals with Diabrotica balteata. Put plainly: Diabrotica balteata spray test. Particulars: 168 h, wheat seeds, larvae, after 7 days, read-out: activity (efficacy: 100% means all seedlings have grown up like in the untreated, uninfected control); for pest or weed control at 32 µg/disc, 100 g/ha: application rate 100 g/ha (=32 μg/well); for pest or weed control at 160 µg/disc, 500 g/ha: application rate 500 g/ha (=160 μg/well). The procedure, abridged:
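Wheat seedlings, germinated 1 day on agar, were sprayed with compound in acetone/DMF diluted in water containing emulsifier, then infested with 10-20 Diabrotica balteata larvae. After 7 days efficacy in % was scored: 100% means seedlings grew like the untreated, uninfected control; 0% means none grew.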

For `C[C@H](NC(=O)c1cc(C(F)(F)F)cc(C(F)(F)F)c1)c1ncnn1-c1ccc(C(=O)N(C)C2CC2)cn1` [II-38, 6-(5-{(1S)-1-[3,5-bis(trifluoromethyl)benzamido]ethyl}-1H-1,2,4-triazol-1-yl)-N-cyclopropyl-N-methylnicotinamide], the mortality (commonly the share of the test organisms that died) at 20 mg/m2 in test [1] is 80 to 100%. For the same compound, the pest or weed control at 5 µg/cm2 in test [2] amounted to 100%. The pest or weed control at 5 µg/cm2 in test [3] came out at 100%. In test [4], this compound showed a mortality at 100 g/ha of 100% and a mortality at 500 g/ha of 100%. In test [5], the mortality at 100 g/ha came out at 100% and the mortality at 500 g/ha worked out at 100%. In test [6], the pest or weed control at 0.004 mg was found to be 100% and the pest or weed control at 0.02 mg came to 100%. For the same compound, in test [7], the pest or weed control at 32 µg/disc, 100 g/ha came out at 100% and the pest or weed control at 160 µg/disc, 500 g/ha amounted to 100%.
For the compound `C[C@H](NC(=O)c1cc(C(F)(F)F)cc(C(F)(F)F)c1)c1ncnn1-c1ncc(Cl)s1` [II-40], the mortality at 4 mg/m2 in test [1] (surface concentration 4 mg/m^2, glazed tile) lay in the range of 80 to 100%. For the same compound, the mortality at 20 mg/m2 in test [1] lay in the range of 80 to 100%. The pest or weed control at 5 µg/cm2 in test [2] came out at 100%. Moreover, the pest or weed control at 5 µg/cm2 in test [3] came to 100%. Also, in test [4], the mortality at 100 g/ha was determined as 100% and the mortality at 500 g/ha worked out at 100%. Also, in test [5], the mortality at 100 g/ha amounted to 100% and the mortality at 500 g/ha came out at 100%. In test [6], the pest or weed control at 0.004 mg amounted to 100% and the pest or weed control at 0.02 mg stood at 100%. Besides, in test [7], the pest or weed control at 32 µg/disc, 100 g/ha is 100% and the pest or weed control at 160 µg/disc, 500 g/ha came to 100%.
Turning to `Cc1nc([C@H](C)NC(=O)c2cc(Cl)nc(C(F)(F)F)c2)n(-c2ccc(C#N)cn2)n1` [II-62], in test [1], the mortality at 20 mg/m2 was 80 to 100%. The pest or weed control at 5 µg/cm2 in test [2] and in test [3] was 100% in each case. Besides, the mortality at 100 g/ha in test [4] and in test [5] was 100% throughout. The pest or weed control at 0.004 mg in test [6] came out at 100%. Moreover, the pest or weed control at 0.02 mg in test [6] was found to be 100%. The pest or weed control at 32 µg/disc, 100 g/ha in test [7] was 100%.
